Drawing on ChEMBL document CHEMBL1159264, “Aplysillin A, a thrombin receptor antagonist from the marine sponge Aplysina fistularis fulva” (J Nat Prod, 1995), this text covers IC50 for one compound.

This assay has as its target T1, Proteinase-activated receptor 1 (Homo sapiens, UniProt P25116).
T1 sequence (P25116 whole entry): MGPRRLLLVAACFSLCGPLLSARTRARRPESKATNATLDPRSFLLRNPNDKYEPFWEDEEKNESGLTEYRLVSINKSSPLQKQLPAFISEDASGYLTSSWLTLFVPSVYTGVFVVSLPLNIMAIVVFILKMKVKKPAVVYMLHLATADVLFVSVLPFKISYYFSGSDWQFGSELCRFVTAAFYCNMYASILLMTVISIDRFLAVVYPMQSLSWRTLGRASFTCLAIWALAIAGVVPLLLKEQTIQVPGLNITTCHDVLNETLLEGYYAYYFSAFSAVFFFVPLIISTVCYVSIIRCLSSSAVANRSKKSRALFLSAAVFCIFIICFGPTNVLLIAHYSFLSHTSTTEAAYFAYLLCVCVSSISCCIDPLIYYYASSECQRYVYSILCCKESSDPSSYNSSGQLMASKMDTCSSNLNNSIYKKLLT
In words: Displacement of [125I]thrombin from thrombin receptor in human platelet membrane. It counts as cell membranes. In general terms: Loss of bound radioactivity is the signal in a displacement assay; it reports binding, not function.

Consider `O=S(=O)(O)OC(=C\c1cc(O)c(O)c(Br)c1)/C(=C\c1ccc(O)c(Br)c1)OS(=O)(=O)O` [APLYSIILLIN A], for which the IC50 (usually the concentration at which inhibition is half-maximal) worked out at 20 µM.
